Consider 80 compounds from publication PMC12040169 (PLOS Biology, 2025).

The series is described as follows: in vitro. The settings on record: human, hela cells, % viability.
With `CS(=O)(=O)c1ccc(-c2cnc(N)c(NCC3CCOCC3)n2)cc1` [CBK063849], the viability at 28.5 h, 10 µM is 103%.
With `COc1ccccc1-c1cnc(N)c(NC2CCOCC2)n1` [CBK063853], the viability at 28.5 h, 10 µM was 104%.
For `COc1ccc(-c2cnc(N)c(NCC(C)C)n2)c(OC)c1OC` [CBK063855], the viability at 28.5 h, 10 µM was found to be 95.4%.
Regarding `Nc1ncc(-c2cccc(F)c2)nc1NCC1CCOCC1` [CBK063860], the viability at 28.5 h, 10 µM worked out at 98.7%.
As to `CC(C)CNc1nc(-c2cccc(O)c2)cnc1N` [CBK063862], the viability at 28.5 h, 10 µM amounted to 99.1%.
Turning to `CS(=O)(=O)c1ccc(-c2cnc(N)c(NC3CCC(O)CC3)n2)cc1` (centres unmarked) [CBK063865], the viability at 28.5 h, 10 µM was 110%.
On to `Nc1ncc(-c2cncnc2)nc1NC1CC1` [CBK063869], for which the viability at 28.5 h, 10 µM was 101%.
The figure for `Nc1ncc(-c2cncnc2)nc1NCC1CCOCC1` [CBK063877] is 98.1%.
As for `Nc1ncc(-c2ccncc2)nc1NCc1cccnc1` [CBK063879], the viability at 28.5 h, 10 µM was determined as 103%.
For `CCCC/C=C/c1cnc(N)c(Nc2ccc(OC)cc2)n1` [CBK063890], the viability at 28.5 h, 10 µM worked out at 93.9%.
As for `Nc1cccc(-c2nc(-c3cccnc3)cnc2N)c1` [CBK063906], the viability at 28.5 h, 10 µM is 95.3%.
Turning to `Nc1cccc(-c2nc(-c3cncnc3)cnc2N)c1` [CBK063907], the viability at 28.5 h, 10 µM was found to be 102%.
`CN(C)CCN1CCN(c2nc(-c3occc3C=O)cnc2N)CC1` [CBK063917]: the viability at 28.5 h, 10 µM is 96.3%.
As for `Nc1cccc(-c2nc(-c3cccs3)cnc2N)c1` [CBK063923], the viability at 28.5 h, 10 µM was found to be 94.5%.
For the compound `CN(C)c1ccc(-c2nc(-c3cccc(OC(F)(F)F)c3)cnc2N)cc1` [CBK063942], the viability at 28.5 h, 10 µM came to 98.3%.
In the case of `COc1ccc(-c2nc(-c3cccc(F)c3)cnc2N)cc1OC` [CBK063948] it was 98.4%; in that of `CC(C)[C@H](CO)Nc1nc(-c2ccc(F)c(Cl)c2)cnc1N` [CBK063949], 109%; in that of `COc1ccc(Nc2nc(-c3cccnc3)cnc2N)cc1` [CBK063952], 90.3%.
In the case of `CCCC/C=C/c1cnc(N)c(-c2cccc(N)c2)n1` [CBK063954], the viability at 28.5 h, 10 µM turned out to be 102%.
In the case of `CC(C)[C@H](CO)Nc1nc(-c2cccc(OC(F)(F)F)c2)cnc1N` [CBK063957], the viability at 28.5 h, 10 µM amounted to 85.7%.
Take `NCC1CCN(c2nc(-c3cc(C(F)(F)F)cc(C(F)(F)F)c3)cnc2N)CC1` [CBK063960]: the viability at 28.5 h, 10 µM came out at 87.3%.
In the case of `COc1ccc(-c2cnc(N)c(-c3ccc(F)c(Cl)c3)n2)cn1` [CBK063966] it was 111%.
Regarding `CN(C)c1cccc(-c2nc(-c3ccco3)cnc2N)c1` [CBK063970], the viability at 28.5 h, 10 µM was found to be 89.2%.
The figure for `CN(C)c1cccc(-c2nc(-c3cccs3)cnc2N)c1` [CBK063979] is 93.5%; for `Nc1ncc(-c2ccoc2)nc1-c1ccc(F)c(Cl)c1` [CBK063982] it is 93.9%; for `COCOc1ccc(-c2nc(-c3cnc(OC)nc3OC)cnc2N)cc1` [CBK063991] it is 91.9%.
`COCOc1ccc(-c2nc(-c3cccnc3)cnc2N)cc1` [CBK063999]: the viability at 28.5 h, 10 µM stood at 93.6%.
On to `Nc1ncc(-c2ccccc2)nc1-c1ccc(O)cc1` [CBK064030], for which the viability at 28.5 h, 10 µM is 96.7%.
For `CN(C)c1cccc(-c2nc(-c3ccc(C#N)cc3)cnc2N)c1` [CBK064049], the viability at 28.5 h, 10 µM amounted to 91.5%.
Regarding `Nc1ncc(-c2cccnc2)nc1-c1ccc(C(=O)N2CCOCC2)cc1` [CBK064059], the viability at 28.5 h, 10 µM came to 93.4%.
As for `Nc1ncc(-c2ccc(Cl)cc2)nc1-c1ccc(CCC(=O)O)cc1` [CBK064063], the viability at 28.5 h, 10 µM came out at 92.9%.
Regarding `Nc1ncc(-c2ccc3c(c2)OCO3)nc1N1CCC(C(=O)O)CC1` [CBK064074], the viability at 28.5 h, 10 µM amounted to 101%.
In the case of `CC(=O)c1ccc(-c2nc(-c3occc3C=O)cnc2N)cc1` [CBK064081] it was 89.9%; in that of `CCCC/C=C/c1cnc(N)c(Nc2ccc(OC)cc2C)n1` [CBK064090], 101%.
The figure for `Nc1ncc(-c2cccc(OC(F)(F)F)c2)nc1-c1ccc(C(=O)N2CCOCC2)cc1` [CBK064091] is 96.8%.
The figure for `Nc1ncc(-c2ccco2)nc1-c1ccc(C=O)cc1` [CBK064095] is 102%; for `COc1ccc(-c2cnc(N)c(-c3ccc(C=O)cc3)n2)cn1` [CBK064096] it is 90.8%; for `COc1ccc(Nc2nc(-c3cc(C(C)C)ccc3OC)cnc2N)c(C)c1` [CBK064098] it is 87%.
As to `COCOc1ccc(-c2nc(-c3ccco3)cnc2N)cc1` [CBK064108], the viability at 28.5 h, 10 µM came out at 82.9%.
The figure for `COc1ncc(-c2cnc(N)c(-c3ccc(C=O)cc3)n2)c(OC)n1` [CBK064110] is 94.1%; for `CN1CCN(c2ccc(-c3cnc(N)c(NC4CCOCC4)n3)cc2)CC1` [CBK064114] it is 88.8%; for `Nc1ncc(-c2cncnc2)nc1-c1ccc(CCC(=O)O)cc1` [CBK064120] it is 102%.
In the case of `Nc1ncc(-c2ccco2)nc1-c1ccc(C(=O)NCCO)cc1` [CBK064124], the viability at 28.5 h, 10 µM worked out at 91.1%.
As to `CCCC/C=C/c1cnc(N)c(-c2ccc(CCC(=O)O)cc2)n1` [CBK064127], the viability at 28.5 h, 10 µM came to 95.5%.
`Nc1ncc(-c2cc3ccccc3s2)nc1-c1ccc(CCC(=O)O)cc1` [CBK064134]: the viability at 28.5 h, 10 µM stood at 98.1%.
Regarding `CCCC/C=C/c1cnc(N)c(-c2ccc(C(=O)NCCO)cc2)n1` [CBK064141], the viability at 28.5 h, 10 µM is 106%.
Turning to `Nc1ncc(-c2cccc(O)c2)nc1-c1ccc(C(=O)NCCO)cc1` [CBK064143], the viability at 28.5 h, 10 µM stood at 114%.
The figure for `COc1ccc(-c2cnc(N)c(-c3ccc(C(=O)NCCO)cc3)n2)cn1` [CBK064147] is 95.6%; for `COCCn1c(=O)[nH]c2ncc(-c3ccc4c(c3)OCO4)nc21` [CBK064164] it is 95.8%; for `CC(C)Cn1c(=O)[nH]c2ncc(-c3cncnc3)nc21` [CBK064177] it is 90.1%.
`CCCC/C=C/c1cnc2[nH]c(=O)n([C@H](C)c3ccccc3)c2n1` [CBK064182]: the viability at 28.5 h, 10 µM is 99.7%.
`CN(C)CCNC(=O)c1cccc(-c2cnc3[nH]c(=O)n(C4CCCCC4)c3n2)c1` [CBK064191]: the viability at 28.5 h, 10 µM stood at 103%.
In the case of `C[C@@H](c1ccccc1)n1c(=O)[nH]c2ncc(-c3cccc4cccnc34)nc21` [CBK064199] it was 92%; in that of `CCCC/C=C/c1cnc2[nH]c(=O)n(CC(C)C)c2n1` [CBK064225], 96.4%; in that of `COc1cncc(-c2cnc3[nH]c(=O)n(C4CCCCC4)c3n2)c1` [CBK064230], 97.8%.
Consider `COc1ccc(-c2cnc3[nH]c(=O)n([C@H](C)c4ccccc4)c3n2)c(OC)c1OC` [CBK064236], for which the viability at 28.5 h, 10 µM worked out at 94.7%.
For `COc1ccc(-c2cnc3[nH]c(=O)n(CCCN4CCOCC4)c3n2)c(OC)c1OC` [CBK064249], the viability at 28.5 h, 10 µM worked out at 109%.
As for `CCCC/C=C/c1cnc2[nH]c(=O)n(C3CCOCC3)c2n1` [CBK064253], the viability at 28.5 h, 10 µM came out at 98.1%.
The figure for `COc1cc(-c2cnc3[nH]c(=O)n(C4CCOCC4)c3n2)cc(OC)c1OC` [CBK064255] is 94.6%; for `O=c1[nH]c2ncc(-c3cccc4ccccc34)nc2n1Cc1cccnc1` [CBK064274] it is 102%.
With `O=c1[nH]c2ncc(-c3cccc4cccnc34)nc2n1Cc1cccnc1` [CBK064305], the viability at 28.5 h, 10 µM came out at 58.9%.
Turning to `O=c1[nH]c2ncc(-c3cccc(-c4ccccc4)c3)nc2n1CCCN1CCOCC1` [CBK064311], the viability at 28.5 h, 10 µM stood at 92.1%.
On to `O=c1[nH]c2ncc(-c3ccco3)nc2n1CCCN1CCOCC1` [CBK064319], for which the viability at 28.5 h, 10 µM was 90.6%.
As to `COc1ccc(C(C)C)cc1-c1cnc2[nH]c(=O)n(CCc3cccnc3)c2n1` [CBK064343], the viability at 28.5 h, 10 µM was found to be 90.4%.
For the compound `O=c1[nH]c2ncc(-c3ccco3)nc2n1Cc1ccccn1` [CBK064349], the viability at 28.5 h, 10 µM was determined as 101%.
The figure for `C[C@@H](c1ccccc1)n1c(=O)[nH]c2ncc(-c3ccc(N(C)C)cc3)nc21` [CBK064352] is 103%; for `CC(=O)c1ccc(-c2cnc3[nH]c(=O)n([C@@H](C)c4ccccc4)c3n2)s1` [CBK064360] it is 98.3%.
Turning to `CCCC/C=C/c1cnc2[nH]c(=O)n(Cc3ccccn3)c2n1` [CBK064365], the viability at 28.5 h, 10 µM was found to be 102%.
Consider `COCCCn1c(=O)[nH]c2ncc(-c3ccc(C(=O)N4CCOCC4)cc3)nc21` [CBK064366], for which the viability at 28.5 h, 10 µM stood at 97.8%.
Consider `C[C@@H](c1ccccc1)n1c(=O)[nH]c2ncc(-c3cccc(C(=O)NCCN(C)C)c3)nc21` [CBK064376], for which the viability at 28.5 h, 10 µM was 103%.
As for `CC(=O)c1ccc(-c2cnc3[nH]c(=O)n(C4CCCCC4)c3n2)s1` [CBK064382], the viability at 28.5 h, 10 µM came to 103%.
In the case of `CS(=O)(=O)c1ccc(-c2cnc3[nH]c(=O)n(Cc4cccs4)c3n2)cc1` [CBK064383] it was 93.1%; in that of `O=c1[nH]c2ncc(-c3ccco3)nc2n1Cc1ccc(F)c(Cl)c1` [CBK064393], 108%.
On to `C[C@@H](c1ccccc1)n1c(=O)[nH]c2ncc(-c3cccc4ncccc34)nc21` [CBK064394], for which the viability at 28.5 h, 10 µM stood at 116%.
With `CC(C)Cn1c(=O)[nH]c2ncc(-c3cccc4cccnc34)nc21` [CBK064400], the viability at 28.5 h, 10 µM worked out at 60.5%.
Regarding `COc1ncc(-c2cnc3[nH]c(=O)n([C@H](C)c4ccccc4)c3n2)cn1` [CBK064401], the viability at 28.5 h, 10 µM amounted to 85.3%.
Turning to `O=c1[nH]c2ncc(-c3ccc(OC(F)(F)F)cc3)nc2n1Cc1ccc(Cl)cc1` [CBK064409], the viability at 28.5 h, 10 µM came to 103%.
Turning to `O=C(c1ccc(-c2cnc3[nH]c(=O)n(Cc4ccccn4)c3n2)cc1)N1CCOCC1` [CBK064413], the viability at 28.5 h, 10 µM worked out at 110%.
For the compound `COCCCn1c(=O)[nH]c2ncc(-c3ccc(O)cc3)nc21` [CBK064425], the viability at 28.5 h, 10 µM is 93.6%.
As to `O=c1[nH]c2ncc(-c3ccco3)nc2n1Cc1cccs1` [CBK064438], the viability at 28.5 h, 10 µM was 103%.
